In article doi:10.1101/2024.12.18.629081v1 (biorxiv, 2024):

What was measured:
FGFR3 = FGFR3 (Homo sapiens, UniProt P22607); experiment: SPR; type: binding
GCK = target: T1, GCK (Homo sapiens, UniProt P35557); experiment: G6PDH-coupled activation assay, A340; type: biochemical
T1 sequence (P35557 1-465): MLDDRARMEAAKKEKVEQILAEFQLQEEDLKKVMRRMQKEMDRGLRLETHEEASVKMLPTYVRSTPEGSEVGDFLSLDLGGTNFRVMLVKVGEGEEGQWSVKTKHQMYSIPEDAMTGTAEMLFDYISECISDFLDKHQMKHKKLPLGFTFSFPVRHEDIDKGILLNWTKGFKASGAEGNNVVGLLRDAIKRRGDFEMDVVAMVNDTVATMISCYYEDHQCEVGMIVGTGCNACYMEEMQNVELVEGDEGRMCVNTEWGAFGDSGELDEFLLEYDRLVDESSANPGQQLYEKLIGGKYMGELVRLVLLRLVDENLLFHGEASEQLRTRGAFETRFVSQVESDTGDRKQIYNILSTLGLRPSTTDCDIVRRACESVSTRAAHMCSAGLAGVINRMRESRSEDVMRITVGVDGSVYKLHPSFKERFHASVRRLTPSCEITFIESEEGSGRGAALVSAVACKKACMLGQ

Sequence of FGFR3 (P22607 449-759): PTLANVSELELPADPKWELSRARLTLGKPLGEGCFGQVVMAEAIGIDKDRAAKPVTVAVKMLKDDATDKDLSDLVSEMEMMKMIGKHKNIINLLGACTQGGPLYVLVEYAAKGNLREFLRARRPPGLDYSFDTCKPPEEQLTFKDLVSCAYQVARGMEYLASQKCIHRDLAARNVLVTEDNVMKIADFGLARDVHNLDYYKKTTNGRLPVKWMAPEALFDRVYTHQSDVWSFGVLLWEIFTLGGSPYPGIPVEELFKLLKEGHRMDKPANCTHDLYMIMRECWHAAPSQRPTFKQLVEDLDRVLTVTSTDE

| Kd (FGFR3) | EC50 (GCK) | Compound |
| --- | --- | --- |
| 599 µM |  | Nc1nc2c(s1)[C@H](c1ccc(F)cc1)CC(=O)N2 [F4] |
| 61.4 µM |  | Nc1nc2c(s1)[C@H](c1ccccc1OCc1ccc(Cl)cc1)CC(=O)N2 [F42] |
|  | 1.81 ± 0.28 µM | CNc1ccc(Sc2nnc[nH]2)nc1C(=O)Nc1nccs1 [G0] |
|  | 0.15 µM | Cc1cccc(Nc2ccc(Sc3nnc[nH]3)nc2C(=O)Nc2nccs2)c1 [G11] |
